Experimental data reported in patent US4797284A, “Transdermal drug delivery system” (Merck & Co., Inc., priority 1986, dated 1989).

Columns and labels:
Type in all cases: physicochemical
[1] = crystallization of dissolved drug in unitary solid reservoir of dissolved and undissolved drug
Excerpt: Generally, the structure of a transdermal bandage or device consists of (a) a transdermal delivery system comprising an impermeable backing, a drug-containing reservoir, a rate-controlling membrane on the side to be ultimately proximate to the skin of the patient and (b) a means of attaching the system to the dermal surface. In the known systems, the reservoir, the source of supply for the drug, whether a single solid unit, a walled unit or a unit employing drug containing micro-capsules within the reservoir structure, contains the drug partly in particulate form and partly in solution i.e., contains drug in excess of its saturation solubility. During use, the drug in solution migrates to the permeable membrane surface, passes through the membrane and onto the skin for absorption. As the dissolved drug passes through the membrane some of the undissolved drug dissolves and there is, until the supply of undissolved drug is exhausted, a mixture of both dissolved and undissolved drug in the reservoir. The presence of dissolved and undissolved drug is considered necessary to provide for the near zero order rate of delivery, zero order being the rate of delivery which is constant or independent of time. […]

[2] = diffusion coefficient of drug in the membrane (Dm), side-by-side diffusion cell; conditions: 7.5 percent ethylene vinyl acetate copolymer film (PE-75)
Method: The diffusion coefficient of drug in the membrane, Dm or Dm', is determined by mounting the membrane between two chambers of a side-by-sidediffusion cell. A determined amount of drug in solution (donor phase) is placed in one chamber and a receptor solvent in the other, into which the drug diffuses and in which it will remain substantially below its saturation solubility (receptor phase). The cells are stirred while maintained in a constant temperature bath, preferably at 32° C. The receptor phase is sampled from time to time and assayed for drug, and steady state flux through the membrane calculated. Km, the partition coefficient between the donor solution and membrane, is determined by equilibrating a known volume of donor solution at 32° C., then assaying the solution for change in drug concentration to determine partitioning between membrane and donor. The diffusion coefficient of the drug in the membrane is calculated from the steady state Fick's law equation, which for semi-permeable membrane is
Initially, Dr was determined for timolol in a commercially available acrylate film-forming material, a 30 percent weight/weight (w/w) vinyl acetate-acrylate copolymer in 53:11:36 ethyl acetate:toluene:ethanol solvent (Gelva® RA-737 multipolymer solution obtained from Monsanto) in the manner previously described. […]

[3] = diffusion coefficient of drug in the reservoir (Dr), release from drug-bearing film into stirred receptor solution; conditions: 30 percent w/w vinyl acetate-acrylate copolymer in 53:11:36 ethyl acetate:toluene:ethanol (Gelva RA-737); timolol free base
Method: When a solid reservoir is employed, the diffusion coefficient of the drug in the reservoir, Dr, is determined by first dissolving the drug to be used in a solution of matrix-forming polymer at a concentration below the saturation solubility of the drug in the polymer solution, and then coating the solution and allowing the coating to dry or curing the coating to form a drug bearing film. The coating may be made on a releasable surface so that a free film is employed in the diffusion coefficient determination or may be made on an impermeable backing material in which case the film with backing is employed in making the determination. […] The receptor solution, which is maintained at a constant temperature, preferably 32° C., is sampled at appropriate intervals and quantitative determination of drug concentration made by HPLC (high pressure liquid chromatography) with UV detection or by other suitable means based on the physical-chemical characteristics of the drug. The value for Dr is then determined by a nonlinear regression fit of observed data to either the earlier time or the late time approximation as is appropriate for drug release from a continuous matrix containing only dissolved drug as discussed in Baker et al, "Controlled Release: Mechanisms and Rates" in Advances in Experimental Medicine and Biology, Vol 47, page 41, Eds. Tanquary et al, Plenum Press, N.Y., 1974. […]

CC(C)(C)NC[C@H](O)COc1nsnc1N1CCOCC1 [timolol]
crystallization of dissolved drug after fabrication [1]: the dissolved drug often slowly crystallizes subsequent to fabrication
Dm (diffusion coefficient of drug in membrane) [2]: 2.85×10^-6 cm^2 /hour
Dr (diffusion coefficient of drug in reservoir) [3]: 1.58×10^-6 cm^2 /hour
